Measured values from patent US4189604A, “Bestatin” (Zaidan Hojin Biseibutsu Kagaku Kenkyu Kai, priority 1975, dated 1980).
≈ marks a conversion by molar mass, not a printed value.

What was measured:
aminopeptidase B = biological target: T1, aminopeptidase B (Rattus norvegicus, UniProt O09175); test: Inhibitory activity against aminopeptidase B; format: biochemical
T1 construct: aminopeptidase B solution which is prepared by Sephadex 100 chromatography as described by Hopusu et al; from tissue
T1 sequence (O09175 1-650): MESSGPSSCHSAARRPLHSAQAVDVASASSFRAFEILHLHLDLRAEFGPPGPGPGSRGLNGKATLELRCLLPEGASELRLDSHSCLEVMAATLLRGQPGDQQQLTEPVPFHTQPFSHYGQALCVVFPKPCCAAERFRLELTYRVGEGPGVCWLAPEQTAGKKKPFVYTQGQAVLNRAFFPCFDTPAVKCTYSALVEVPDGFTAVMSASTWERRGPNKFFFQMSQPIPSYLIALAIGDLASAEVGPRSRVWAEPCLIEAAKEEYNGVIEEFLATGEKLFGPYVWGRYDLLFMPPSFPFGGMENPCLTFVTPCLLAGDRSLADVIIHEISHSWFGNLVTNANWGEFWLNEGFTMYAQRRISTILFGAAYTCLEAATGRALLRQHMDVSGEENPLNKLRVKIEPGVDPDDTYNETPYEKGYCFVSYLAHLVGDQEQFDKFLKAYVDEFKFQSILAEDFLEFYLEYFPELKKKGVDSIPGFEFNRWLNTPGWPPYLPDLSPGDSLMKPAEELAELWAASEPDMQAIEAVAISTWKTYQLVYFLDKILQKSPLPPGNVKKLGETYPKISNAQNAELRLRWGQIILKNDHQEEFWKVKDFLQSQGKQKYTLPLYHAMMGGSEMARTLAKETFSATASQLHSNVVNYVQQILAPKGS
Experimental: (A) Inhibitory activity against aminopeptidase B Testing method: The method described by […] in Archives of Biochemistry and Biophysics 114, 557, (1966) was modfied. To the mixture of 0.3 ml. of 1 mM arginine β-naphthylamide and 1.0 Ml. of 0.1 M Tris hydrochloride buffer (pH 7.0), 0.7 Ml. of distilled water with or without a test material is added and warmed at 37° C. for 3 minutes. The reaction is started by addition of 0.2 ml. of aminopeptidase B solution which is prepared by Sephadex 100 chromatography as described by Hopusu et al. […] Fifteen minutes at room temperature thereafter, absorbance (a) at 530 nm is measured by spectrophotometer. […] The inhibition percent is calculated as follows: (b-a)/b×100.

[1] = Contraceptive property: antifertility of Bestatin; format: in vivo, ICR JCL female mice
Experimental: (C) Contraceptive property:
Antifertility of Bestatin:
Immediately after subcutaneously administering Bestatin (10 mg./kg.) to ICR JCL female mice at the age of puberty, these mice were placed with male mice of similar line. Female mice which had copulated were killed two days after formulation of vaginal plug and the ova were collected from their uterine tubes so as to examine whether they had been fertilized or not. The fertilized ova were at 8-16 cell period.

[2] = tested on: plaque forming cells in the spleen; test: Effect on humoral antibody formation to Sheep Red Blood Cell (SRBC) in mice (JERNE's hemolytic plaque technique); format: in vivo, Mice (dd/y female); conditions: for Antibody Forming Cells Number / Antibody Forming Cells Treated Group / Non-treated Group: intraperitoneal, four days
Experimental: The compound of Example 28 was also tested for its humoral antibody formation to find its efficacy as an immunizing cancer inhibitor. […] For the humoral antibody formation of Bestatin per se see J. Antibiotics, 29(8), 857-859 (August, 1976).
The effect of (2RS,3RS)-3-amino-2-hydroxy-4-hydroxyphenylbutanoyl-(S)-leucine on humoral antibody formation to Sheep Red Blood Cell (SRBC) in mice was studied as follows.
Mice (dd/y female) were immunized by intravenous injection of 10^8 SRBC. Intraperitoneal injection of (2RS,3RS)-3-amino-2-hydroxy-4-hydroxyphenylbutanoyl-(S)-leucine was made soon afterwards.
Four days thereafter the number of plaque forming cells in the spleen were enumerated by JERNE's hemolytic plaque technique [Jerne, N. K.; A. A. Nordin & C. Henry: "The Agar Plaque Technique for Recognizing Antibody-producing Cells" in cell-bound antibodies (Wistar Institute Press, Philadelphia, 1963), pp. 109-122].

[3] = Organ distribution of Bleomycin B2 in the presence of Bestatin; format: in vivo, ICR male mice; conditions: 1 hour, average of 3
Experimental: (B) Organ distribution of Bleomycin in the presence of Bestatin:
100 mg./kg. of Bleomycin B2 was subcutaneously administered to each of three ICR male mice (4 weeks of age) and 100 mg./kg. of Bleomycin B2 and 100 mg./kg. of Bestatin were subcutaneously administered simultaneously to each of three similar mice. These 6 mice were killed one hour after administration and the quantity of Bleomycin B2 remaining in the serum and organs was determined by a thin layer disc method employing Bacillus subtilis PCI219 as the test microorganism. The results are as listed in Table 2, wherein the numerals show average values in mcg./ml.

[4] = BLM 100 mg/kg + BST (Bestatin) 100 mg/kg s.c. simultaneously

CC(C)C[C@H](NC(=O)[C@@H](O)[C@H](N)Cc1ccccc1)C(=O)O [No. 1, [(2S,3R)-3-amino-2-hydroxy-4-phenylbutanoyl]-L-leucine]
ID50 (aminopeptidase B; Biological Testing table after Example 29): 0.10 µg/mL (≈ 0.324 µM)
ID50 (aminopeptidase B; pH 7.0, 37° C., 30 minutes, Table 1): 0.10 µg/mL (≈ 0.324 µM)
antifertility ([1]; 10 mg./kg. s.c.): has an antifertility property
Fertilized ovum (number) ([1]; 10 mg./kg. s.c., Female No. 1): 4
Fertilized ovum (percent) ([1]; 10 mg./kg. s.c., Female No. 1): 40%
Non-fertilized ovum (number) ([1]; 10 mg./kg. s.c., Female No. 1): 6
Non-fertilized ovum (percent) ([1]; 10 mg./kg. s.c., Female No. 1): 60%
Number of collected ovum ([1]; 10 mg./kg. s.c., Female No. 1): 10
Number of corpus luteum ([1]; 10 mg./kg. s.c., Female No. 1): 10
Fertilized ovum (number) ([1]; 10 mg./kg. s.c., Female No. 2): 6
Fertilized ovum (percent) ([1]; 10 mg./kg. s.c., Female No. 2): 31.6%
Non-fertilized ovum (number) ([1]; 10 mg./kg. s.c., Female No. 2): 13
Non-fertilized ovum (percent) ([1]; 10 mg./kg. s.c., Female No. 2): 68.4%
Number of collected ovum ([1]; 10 mg./kg. s.c., Female No. 2): 19
Number of corpus luteum ([1]; 10 mg./kg. s.c., Female No. 2): 19
Fertilized ovum (number) ([1]; 10 mg./kg. s.c., Total N=2): 10
Fertilized ovum (percent) ([1]; 10 mg./kg. s.c., Total N=2): 34.5%
Non-fertilized ovum (number) ([1]; 10 mg./kg. s.c., Total N=2): 19
Non-fertilized ovum (percent) ([1]; 10 mg./kg. s.c., Total N=2): 65.5%
Number of collected ovum ([1]; 10 mg./kg. s.c., Total N=2): 29
Number of corpus luteum ([1]; 10 mg./kg. s.c., Total N=2): 29
fertility of the ova collected ([1]; copulated 4-16 hours after administration, control 70%): 34.5%
number of antibody forming cells compared with non-treated group ([2]; 10 mcg., in words): nearly equal to that of non-treated group
Antibody Forming Cells Number ([2]; dose 1 mg.): 190,000±7,100
Antibody Forming Cells Treated Group / Non-treated Group ([2]; dose 1 mg.): 1.52
Antibody Forming Cells Number ([2]; dose 10 mcg.): 136,250±6,500
Antibody Forming Cells Treated Group / Non-treated Group ([2]; dose 10 mcg.): 1.09

Bleomycin B2 [BLM]
Bleomycin B2 remaining in Brain [3, 4]: 2.4 µg/mL
Bleomycin B2 remaining in Kidney [3, 4]: 84.0 µg/mL
Bleomycin B2 remaining in Liver [3, 4]: 0 µg/mL
Bleomycin B2 remaining in Lung [3, 4]: 21.2 µg/mL
Bleomycin B2 remaining in Serum [3, 4]: 140 µg/mL
Bleomycin B2 remaining in Skin [3, 4]: 42.0 µg/mL
Bleomycin B2 remaining in Spleen [3, 4]: 5.8 µg/mL
Bleomycin B2 remaining in Stomach [3, 4]: 2.5 µg/mL
Bleomycin B2 remaining in Brain ([3]; BLM 100 mg/kg s.c. alone): 0 µg/mL
Bleomycin B2 remaining in Kidney ([3]; BLM 100 mg/kg s.c. alone): 68.0 µg/mL
Bleomycin B2 remaining in Liver ([3]; BLM 100 mg/kg s.c. alone): 0 µg/mL
Bleomycin B2 remaining in Lung ([3]; BLM 100 mg/kg s.c. alone): 11.2 µg/mL
Bleomycin B2 remaining in Serum ([3]; BLM 100 mg/kg s.c. alone): 110 µg/mL
Bleomycin B2 remaining in Skin ([3]; BLM 100 mg/kg s.c. alone): 4.5 µg/mL
Bleomycin B2 remaining in Spleen ([3]; BLM 100 mg/kg s.c. alone): 4.0 µg/mL
Bleomycin B2 remaining in Stomach ([3]; BLM 100 mg/kg s.c. alone): 1.6 µg/mL
